Paper PMC2248282 (Chemmedchem, 2007)

Experiments:
[1] = test system: human embryonic kidney cells (HEK 293T); test: Cytotoxicity to mammalian cells; format: cell-based; conditions: read-out: IC50 HEK 293T
T. b. brucei (Bs427) = test: In vitro trypanocidal assay; format: cell-based; conditions: for IC50: Trypanosoma brucei, read-out: IC50 Bs427; for activity against T. b. brucei (in words): in vitro
[2] = LC-MS stability in phosphate buffer saline at 37°C; format: physicochemical
[3] = phosphate buffered saline, pH 7.2

| Molecule | IC50 [1] [µM] | IC50 (T. b. brucei (Bs427)) [µM] | activity against T. b. brucei (in words) (T. b. brucei (Bs427)) | half-life at 1 mg/mL [2, 3] [min] | half-life [2, 3] [min] | half-life ([2]; PBS (pH 7.2) at 37°C, LC-MS, disappearance of molecular ion) [min] |
| --- | --- | --- | --- | --- | --- | --- |
| CC1(C)OC(COP(=O)(OCOC(=O)C(C)(C)C)OCOC(=O)C(C)(C)C)C(C(=O)NO)O1 (stereo not drawn) [Compound 3e, (5-(hydroxycarbamoyl)-2,2-dimethyl-1,3-dioxolan-4-yl)methyl bis((pivaloyloxy)methyl) phosphate] | > 200 | 20.2 | moderate activities | 31.8 | – | – |
| COC(=O)C(C)NP(=O)(OCC1OC(C)(C)OC1C(=O)NO)Oc1ccc([N+](=O)[O-])cc1 (stereo not drawn) [Compound 3c, 2-[(5-Hydroxycarbamoyl-2,2-dimethyl-[1,3]dioxolan-4-ylmethoxy)-(4-nitro-phenoxy)-phosphorylamino]-propionic acid methyl ester] | > 200 | 43.8 | moderate activities | 51 | – | – |
| COc1ccc(CONC(=O)C2OC(C)(C)OC2COP(=O)(OCCSC(=O)C(C)(C)C)OCCSC(=O)C(C)(C)C)c(OC)c1 (stereo not drawn) [Compound 24, 2,2-dimethyl-thiopropionic acid S-(2-{[5-(2,4-dimethoxy-benzyloxycarbamoyl)-2,2-dimethyl-[1,3]dioxolan-4-ylmethoxy]-[2-(2,2-dimethyl-propionylsulfanyl)-ethoxy]-phosphoryloxy}-ethyl) ester] | > 200 | 25 | improved activity | – | – | – |
| COC(=O)C(C)NP(=O)(OCC1OC(C)(C)OC1C(=O)NO)Oc1ccccc1 (stereo not drawn) [Compound 3b, 2-[(5-Hydroxycarbamoyl-2,2-dimethyl-[1,3]dioxolan-4-ylmethoxy)-phenoxy-phosphorylamino]-propionic acid methyl ester] | > 200 | 6.95 | highest activity | – | 300 | – |
| CC1(C)OC(COP(=O)(OCCSC(=O)C(C)(C)C)OCCSC(=O)C(C)(C)C)C(C(=O)NO)O1 (stereo not drawn) [Compound 3a, 2,2-Dimethyl-thiopropionic acid S-{2-[[2-(2,2-dimethyl-propionylsulfanyl)-ethoxy]-(5-hydroxycarbamoyl-2,2-dimethyl-[1,3]dioxolan-4-ylmethoxy)-phosphoryloxy]-ethyl} ester] | > 200 | 4.23 | highest activity | – | – | – |
| 2,2-Dimethyl-thiopropionic acid S-(2-{[5-(2,4-dimethoxy-benzyloxycarbamoyl)-2,2-dimethyl-[1,3]dioxolan-4-ylmethoxy]-phenoxy-phosphoryloxy}-ethyl) ester [Compound 3d] | – | – | highest activity | – | – | 128 |
| COc1ccc(CONC(=O)C2OC(C)(C)OC2COP(=O)(OCCSC(=O)C(C)(C)C)Oc2ccccc2)c(OC)c1 (stereo not drawn) [Compound 26b, 2,2-Dimethyl-thiopropionic acid S-(2-{[5-(2,4-dimethoxy-benzyloxycarbamoyl)-2,2-dimethyl-[1,3]dioxolan-4-ylmethoxy]-phenoxy-phosphoryloxy}-ethyl) ester] | > 200 | > 100 | – | – | – | – |
| COc1ccc(CONC(=O)C2OC(C)(C)OC2COP(=O)(OCCSC(=O)C(C)(C)C)Oc2ccccc2)cc1 (stereo not drawn) [Compound 26a, 2,2-Dimethyl-thiopropionic acid S-(2-{[5-(4-methoxy-benzyloxycarbamoyl)-2,2-dimethyl-[1,3]dioxolan-4-ylmethoxy]-phenoxy-phosphoryloxy}-ethyl) ester] | > 200 | > 100 | – | – | – | – |
